System: cell clumps in blood
Test: Cell clumping of biological samples (blood) processed through a microfluidic device
Format: cell-based
Details: DU 2% final working concentration, incubated at room temperature for 30 minutes or overnight, compared with samples without DU (FIGS. 1-4)
Procedure: In this experiment, DU was dissolved in PBS to make an 80% (w/v) aqueous concentrated solution. The concentrated solution was then added to biological samples in such a way as to yield a final working concentration of 2%. Biological samples were gently mixed with DU solution to ensure equal distribution of DU, and the resulting mixture was incubated at room temperature for at least 30 minutes.
Samples were then processed according to pre-determined protocols.
FIG. 1 provides an example of samples without being treated with DU and processed through a microfluidic device. The white strands are cell clumps.
FIG. 2 provides an example of samples being treated with DU and processed through a microfluidic device (for this particular experiment, the sample and DU were incubated overnight).
FIG. 3 provides another example of samples without being treated with DU and processed through a microfluidic device.
FIG. 4 provides another example of samples being treated with DU and processed through a microfluidic device (for this particular experiment, the sample and DU were incubated for 30 minutes.

O=C(NCO)N(CO)C1(CO)C(=O)NC(=O)N1CO (stereo not shown) [DU, diazolidinyl urea]
reduction of cellular clumping: great improvement for reducing cellular clumping

Reference: patent publication US9040255B2, “Use of diazolidinyl urea for anti-clumping of biological samples” (BIOCEPT, INC., priority 2010, dated 2015)
